The results in this text go back to ChEMBL document CHEMBL3232923, “Illudins C2 and C3 stimulate lipolysis in 3T3-L1 adipocytes and suppress adipogenesis in 3T3-L1 preadipocytes” (J Nat Prod, 2014).

The structures appear in SMILES notation. Active and inactive are the calls of the source. The calls are words filed in the database; no cut-off is given here.

Series [1] concerns 3T3-L1. Briefly: Stimulation of lipolysis in mouse 3T3L1 cells at 10 uM after 48 hrs by glycerol release assay. The format is functional, cell-based.
Series [2] concerns 3T3-L1. Briefly: Stimulation of lipolysis in mouse 3T3L1 cells after 48 hrs by glycerol release assay. Format: functional, cell-based.
Series [3] has as its system 3T3-L1. Briefly: Induction of PKA-mediated HSL phosphorylation at S563 in mouse 3T3L1 cells at 10 uM after 24 to 48 hrs by immunoblotting. Format: cell-based. In general terms: In western blotting, separated proteins are transferred to a membrane and probed.
Series [4] in a line: Cytotoxicity against mouse 3T3L1 cells at 1 to 10 uM after 48 hrs by MTT assay. The note with it: 3t3-l1, 48 h. Format: cell-based.
Series [5] relates to 3T3-L1. Briefly: Inhibition of mouse 3T3L1 cell differentiation assessed as reduction in intracellular lipid accumulation after 8 days by Oil Red O staining method. Format: functional, cell-based.
The subject of series [6] is 3T3-L1. Briefly: Reduction of perilipin protein level in mouse 3T3L1 cells at 10 uM after 24 to 48 hrs by immunoblotting. Format: functional, cell-based.
The nature of series [7]: Reduction of […] mRNA expression in mouse 3T3L1 cells after 24 hrs by RT-PCR analysis. The note with it: 3T3-L1. Format: functional, cell-based.
Series [8] concerns 3T3-L1. Briefly: Inhibition of mouse 3T3L1 cell differentiation assessed as reduction in EBPalpha gene expression after 2 days by RT-PCR analysis. Format: functional, cell-based.
Series [9] has as its system 3T3-L1. Briefly: Stimulation of lipolysis in mouse 3T3L1 cells after 48 hrs by glycerol release assay in presence of PKA inhibitor H89. The format is functional, cell-based.
Series [10] relates to 3T3-L1. Briefly: Stimulation of lipolysis in mouse 3T3L1 cells after 48 hrs by glycerol release assay in presence of JNK inhibitor SP600125. The format is functional, cell-based.
Series [11] concerns 3T3-L1. Kind of series: Reduction of […] protein level in mouse 3T3L1 cells at 10 uM after 24 to 48 hrs by immunoblotting. Format: functional, cell-based.
Series [12] concerns 3T3-L1. Briefly: Induction of AMPK-mediated HSL phosphorylation at S565 in mouse 3T3L1 cells at 10 uM after 24 to 48 hrs by immunoblotting. The format is cell-based.
The test system of series [13] is 3T3-L1. Briefly: Stimulation of lipolysis in mouse 3T3L1 cells after 48 hrs by glycerol release assay in presence of ERK inhibitor PD98059. Format: functional, cell-based.
Series [14] in a line: Reduction of perilipin mRNA expression in mouse 3T3L1 cells after 24 hrs by RT-PCR analysis. The format is functional, cell-based. The note with it: 3T3-L1.
Series [15] deals with 3T3-L1. Briefly: Stimulation of lipolysis in mouse 3T3L1 cells after 48 hrs by glycerol release assay in presence of p38 MAPK inhibitor SB203580. The format is functional, cell-based.
Series [16] can be described thus: Reduction of HSL mRNA expression in mouse 3T3L1 cells at 1 to 10 uM after 24 hrs by RT-PCR analysis. Format: functional, cell-based. The note with it: 3T3-L1.
Series [17] has as its system 3T3-L1. Kind of series: Inhibition of mouse 3T3L1 cell differentiation assessed as reduction in PPARgamma protein level after 8 days by immunoblotting. Format: functional, cell-based.
Series [18] concerns 3T3-L1. Kind of series: Reduction of HSL protein level in mouse 3T3L1 cells at 10 uM after 24 to 48 hrs by immunoblotting. The format is functional, cell-based.
Series [19] deals with 3T3-L1. Kind of series: Inhibition of mouse 3T3L1 cell differentiation assessed as reduction in EBPalpha protein level after 8 days by immunoblotting. The format is functional, cell-based.
Series [20] relates to 3T3-L1. Briefly: Reduction of lipid content in mature mouse 3T3L1 cells after 7 days by Oil Red O staining method. The format is functional, cell-based.
Series [21] can be described thus: Reduction of […] mRNA expression in mouse 3T3L1 cells at 1 to 10 uM after 24 hrs by […]. The format is functional, cell-based. The note with it: 3T3-L1.
Series [22] relates to 3T3-L1. Briefly: Inhibition of mouse 3T3L1 cell differentiation assessed as reduction in PPARgamma gene expression after 2 days by RT-PCR analysis. The format is functional, cell-based.
For series [23], the system named is 3T3-L1. Kind of series: Induction of PKA-mediated HSL phosphorylation at S660 in mouse 3T3L1 cells at 10 uM after 24 to 48 hrs by immunoblotting. Format: cell-based.
In series [24] the test system is 3T3-L1. Kind of series: Stimulation of lipolysis in mouse 3T3L1 cells at 0.25 mM after 48 hrs by glycerol release assay. Format: functional, cell-based.

For the molecule `CC(C)NCC(O)c1ccc(O)c(O)c1` (stereo not drawn), the outcome in [1] was Active.

Regarding `C=C1C(=O)C2=C(C[C@@](C)(CO)C2)[C@](C)(O)C12CC2`, the Activity entry was “Dose-dependent effect” in [2]; “Non-toxic” in [4]; “Dose-dependent effect” in series [7]; “Dose-dependent effect” in series [14]; “Dose-dependent effect” in series [20]. The result in series [3], in series [6], in series [10], in [11], in series [15] and in series [16] was Active. Also, the outcome in series [1], in series [18], in series [21] and in series [23] was Active. In addition, the inhibition entry in series [5], in series [17] and in series [19] was “Dose-dependent effect” in each case. In addition, the inhibition result in series [8] and in series [22] was “Active” each time. Further, the result in series [9], in series [12] and in [13] was inactive.

On to `CC(C)Cn1c(=O)n(C)c(=O)c2nc[nH]c21`, for which the outcome in series [24] was Active.

On to `C=C1C(=O)C2=C(C[C@](C)(CO)C2)[C@](C)(O)C12CC2`, for which the Activity result in [2] was “Dose-dependent effect”; in series [4], “Non-toxic”; in series [7], “Dose-dependent effect”; in [14], “Dose-dependent effect”; in series [20] it was “Dose-dependent effect”. Moreover, the outcome in series [3], in [6], in series [10], in series [11], in series [15] and in series [16] was Active. Besides, the outcome in [1], in [18], in series [21] and in series [23] was Active. The inhibition result in series [5], in series [17] and in series [19] was “Dose-dependent effect” each time. The inhibition entry in series [8] and in series [22] was “Active” throughout. The outcome in series [9], in [12] and in [13] was inactive.
